According to PubChem BioAssay AID248 (DTP/NCI, 2004):
Several values for one entry are separate records, joined by “and”; a condition that tells them apart may be missing. Equal entries are not always repeated. Inconclusive results and toxic doses are left out. No stated cut-off is given here; in the data, active means T/C of 150% or more; inactive means T/C below 125%.

Test system: L1210 leukemia ip in BDF1 mice, survival T/C
Assay: NCI In Vivo Anticancer Drug Screen. Data for tumor model L1210 Leukemia (intraperitoneal) in B6D2F1 (BDF1) mice
Conditions: endpoint: mean survival time, higher = longer survival
In short: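 Transplantable tumor model; survival measured in treated vs vehicle control mice. Value = treated/control.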

[1] = dose: 50.0 mg/kg/injection, schedule: Q01DX009 (ip), vehicle: saline with Tween-80
[2] = dose: 100.0 mg/kg/injection, schedule: Q01DX001 (ip), vehicle: saline
[3] = dose: 200.0 mg/kg/injection, schedule: Q01DX001 (ip), vehicle: saline
[4] = dose: 400.0 mg/kg/injection, schedule: Q01DX001 (ip), vehicle: saline
[5] = dose: 100.0 mg/kg/injection, schedule: Q04DX002 (ip), vehicle: Klucel (hydroxypropylcellulose) (HPC)
[6] = dose: 200.0 mg/kg/injection, schedule: Q04DX002 (ip), vehicle: Klucel (hydroxypropylcellulose) (HPC)
[7] = dose: 50.0 mg/kg/injection, schedule: Q04DX002 (ip), vehicle: Klucel (hydroxypropylcellulose) (HPC)
[8] = dose: 100.0 mg/kg/injection, schedule: Q01DX009 (ip), vehicle: saline
[9] = dose: 200.0 mg/kg/injection, schedule: Q01DX009 (ip), vehicle: saline
[10] = dose: 25.0 mg/kg/injection, schedule: Q01DX009 (ip), vehicle: saline

Measured: T/C

C=C(Br)CN(C)C
inactive: [1] 117 % of control | dose: 100.0 mg/kg/injection, schedule: Q04DX003 (ip), vehicle: saline with Tween-80 96 % of control | dose: 200.0 mg/kg/injection, schedule: Q04DX003 (ip), vehicle: saline with Tween-80 102 % of control

CC(=O)Nc1ccc(/C=N\Nc2ccccn2)cc1
inactive: [2] 89 % of control | [3] 100 % of control | [4] 93 % of control

CC1CC(C)(C)NC(=O)O1 (stereo unspecified)
inactive: dose: 25.0 mg/kg/injection, schedule: Q01DX009 (ip), vehicle: other 93 % of control | dose: 25.0 mg/kg/injection, schedule: Q04DX003 (ip), vehicle: other 90 % of control | dose: 50.0 mg/kg/injection, schedule: Q01DX009 (ip), vehicle: other 92 % of control | dose: 50.0 mg/kg/injection, schedule: Q04DX003 (ip), vehicle: other 89 % of control | dose: 100.0 mg/kg/injection, schedule: Q01DX001 (ip), vehicle: other 103 % of control | dose: 100.0 mg/kg/injection, schedule: Q01DX009 (ip), vehicle: other 92 % of control | dose: 100.0 mg/kg/injection, schedule: Q04DX003 (ip), vehicle: other 90 % of control

CCCOC(=O)Nc1cccc(O)c1
inactive: dose: 100.0 mg/kg/injection, schedule: Q01DX009 (ip), vehicle: saline with Tween-80 92 % of control | dose: 200.0 mg/kg/injection, schedule: Q01DX009 (ip), vehicle: saline with Tween-80 94 % of control | dose: 400.0 mg/kg/injection, schedule: Q01DX009 (ip), vehicle: saline with Tween-80 88 % of control

O=c1nc2n(O)cccc-2c(=O)[nH]1
inactive: dose: 50.0 mg/kg/injection, schedule: Q01DX009 (ip), vehicle: Klucel (hydroxypropylcellulose) (HPC) 96 % of control | dose: 100.0 mg/kg/injection, schedule: Q01DX009 (ip), vehicle: Klucel (hydroxypropylcellulose) (HPC) 100 % of control | dose: 100.0 mg/kg/injection, schedule: Q04DX003 (ip), vehicle: Klucel (hydroxypropylcellulose) (HPC) 96 % of control | dose: 200.0 mg/kg/injection, schedule: Q01DX009 (ip), vehicle: Klucel (hydroxypropylcellulose) (HPC) 101 % of control | dose: 200.0 mg/kg/injection, schedule: Q04DX003 (ip), vehicle: Klucel (hydroxypropylcellulose) (HPC) 102 % of control

Clc1ccc(/C=N/c2snc3ccccc23)cc1Cl
inactive: [5] 92 % of control | [6] 89 % of control | dose: 400.0 mg/kg/injection, schedule: Q04DX002 (ip), vehicle: Klucel (hydroxypropylcellulose) (HPC) 86 % of control

Cc1ccc(Cl)c(C(=O)C(Br)C(Br)c2ccccc2)c1 (stereo unspecified)
inactive: dose: 12.5 mg/kg/injection, schedule: Q01DX009 (ip), vehicle: saline with Tween-80 100 % of control | dose: 25.0 mg/kg/injection, schedule: Q01DX009 (ip), vehicle: saline with Tween-80 100 % of control | [1] 94 % of control and 100 % of control

O=C(O)C1(Br)CC12c1ccccc1-c1ccccc12 (stereo unspecified)
inactive: dose: 100.0 mg/kg/injection, schedule: Q01DX001 (ip), vehicle: acetone 92 % of control | dose: 200.0 mg/kg/injection, schedule: Q01DX001 (ip), vehicle: acetone 95 % of control

C[N+](C)(CC(=O)Nc1ccc(Cl)cc1)Cc1ccc2c(c1)CCCC2
inactive: dose: 6.25 mg/kg/injection, schedule: Q04DX002 (ip), vehicle: saline with Tween-80 90 % of control | dose: 12.5 mg/kg/injection, schedule: Q04DX002 (ip), vehicle: saline with Tween-80 90 % of control | dose: 25.0 mg/kg/injection, schedule: Q04DX002 (ip), vehicle: saline with Tween-80 90 % of control and 91 % of control

CC(=O)Nc1c(Cl)cc(Cl)cc1Cl
inactive: dose: 100.0 mg/kg/injection, schedule: Q01DX001 (ip), vehicle: saline with Tween-80 109 % of control | dose: 200.0 mg/kg/injection, schedule: Q01DX001 (ip), vehicle: saline with Tween-80 93 % of control | dose: 400.0 mg/kg/injection, schedule: Q01DX001 (ip), vehicle: saline with Tween-80 95 % of control

O=C1C2=C(CCC2)c2ccccc21
inactive: [2] 103 % of control | [3] 96 % of control

C/C=C/N1CCN(/C=C/C)C1=O
inactive: dose: 25.0 mg/kg/injection, schedule: Q04DX002 (ip), vehicle: Klucel (hydroxypropylcellulose) (HPC) 96 % of control | [7] 102 % of control | [5] 90 % of control

O=Cc1c(Cl)[nH]c2ccccc12
inactive: [7] 90 % of control | [5] 93 % of control | [6] 101 % of control

O=[N+]([O-])c1ccc(N2CCCC2)cc1
inactive: dose: 100.0 mg/kg/injection, schedule: Q01DX001 (ip), vehicle: Klucel (hydroxypropylcellulose) (HPC) 97 % of control | dose: 200.0 mg/kg/injection, schedule: Q01DX001 (ip), vehicle: Klucel (hydroxypropylcellulose) (HPC) 105 % of control | dose: 400.0 mg/kg/injection, schedule: Q01DX001 (ip), vehicle: Klucel (hydroxypropylcellulose) (HPC) 108 % of control

CC1=NN(c2ccc(S(=O)(=O)O)cc2)C(=O)/C1=C\c1c(C)[nH]n(-c2ccc(S(=O)(=O)O)cc2)c1=O
inactive: [8] 97 % of control | dose: 100.0 mg/kg/injection, schedule: Q04DX003 (ip), vehicle: saline 91 % of control | [9] 106 % of control | dose: 200.0 mg/kg/injection, schedule: Q04DX003 (ip), vehicle: saline 95 % of control | dose: 400.0 mg/kg/injection, schedule: Q01DX009 (ip), vehicle: saline 92 % of control | dose: 400.0 mg/kg/injection, schedule: Q04DX003 (ip), vehicle: saline 91 % of control

CC(C)NCc1ccccc1
inactive: dose: 100.0 mg/kg/injection, schedule: Q04DX002 (ip), vehicle: saline with Tween-80 95 % of control | dose: 200.0 mg/kg/injection, schedule: Q04DX002 (ip), vehicle: saline with Tween-80 98 % of control

O=C(CCCC(=O)N/N=C/c1cc([N+](=O)[O-])ccc1O)N/N=C\c1cc([N+](=O)[O-])ccc1O
inactive: dose: 50.0 mg/kg/injection, schedule: Q01DX001 (ip), vehicle: saline 96 % of control | [2] 104 % of control | [3] 102 % of control | [4] 98 % of control

CC(=O)Oc1cc2c[n+](C)c3c4cc(OC(C)=O)c(OC(C)=O)cc4ccc3c2cc1OC(C)=O
inactive: dose: 20.0 mg/kg/injection, schedule: Q01DX009 (ip), vehicle: saline 101 % of control | dose: 40.0 mg/kg/injection, schedule: Q01DX009 (ip), vehicle: saline 109 % of control | dose: 80.0 mg/kg/injection, schedule: Q01DX009 (ip), vehicle: saline 104 % of control | dose: 120.0 mg/kg/injection, schedule: Q01DX009 (ip), vehicle: saline 91 % of control

C1OC1C1CO1 (stereo unspecified)
inactive: dose: 6.25 mg/kg/injection, schedule: Q01DX009 (ip), vehicle: saline 92 % of control | dose: 10.0 mg/kg/injection, schedule: Q01DX001 (ip), vehicle: saline 106 % of control | dose: 12.5 mg/kg/injection, schedule: Q01DX009 (ip), vehicle: saline 104 % of control | dose: 12.5 mg/kg/injection, schedule: Q04DX003 (ip), vehicle: saline 110 % of control | dose: 20.0 mg/kg/injection, schedule: Q01DX001 (ip), vehicle: saline 103 % of control | [10] 114 % of control | dose: 25.0 mg/kg/injection, schedule: Q04DX003 (ip), vehicle: saline 119 % of control | dose: 40.0 mg/kg/injection, schedule: Q01DX001 (ip), vehicle: saline 114 % of control | dose: 44.0 mg/kg/injection, schedule: Q01DX001 (ip), vehicle: saline 105 % of control | dose: 50.0 mg/kg/injection, schedule: Q04DX003 (ip), vehicle: saline 105 % of control

O=c1c(O)c(-c2ccc(O)c(O)c2)oc2cc(O)cc(O)c12
inactive: [10] 115 % of control | dose: 50.0 mg/kg/injection, schedule: Q01DX009 (ip), vehicle: saline 105 % of control | [8] 103 % of control | [9] 104 % of control and 120 % of control
